Experimental data from US20130178453A1, “Cannabinoid Agonists” (priority 2010, published 2013).
Read-outs that look alike come from different tables or passages of the source.

What was measured:
hCB2 [1] = biological target: T1, hCB2 (Homo sapiens, UniProt P34972); test: hCB2 radioligand binding assay ([3H]-CP 55,940 displacement); details: HEK membranes
Method: (§1) cDNA expression clones for human CB 1 (hCB1, Genbank Accession No. AY225225) and human CB2 (hCB2, Genbank Accession No. AY242132) expressed in vector pcDNA3.1+ were purchased from UMR cDNA Resource Center, Rolla, Mo. (Clone ID CNR01L000 for hCB1; CNR0200000 for hCB2).
(§2) Membranes were isolated from transfected cells as follows. Monolayers of cultured cells were washed twice with phosphate-buffered saline (PBS). […] Homogenates were centrifuged 10 minutes at 1000×g at 4° C. The supernatant was collected and was centrifuged for 1 hour at 40,000×g. The supernatant was then decanted and the resulting pellet was re-suspended in 20 mM HEPES, pH 7.4, 5 mM MgCl2, 1 mM EDTA, 10% sucrose with complete cocktail protease inhibitors. Protein concentration of membrane suspensions were measured by Bradford Protein Assay using bovine serum albumin as the standard (BioRad catalog #500-0006). Protein concentrations of membrane suspensions were adjusted with the final buffer in the range of 5 to 10 mg/mL and were stored at −80° C. until further use.
A rapid filtration technique using Millipore FB filter plates (Catalog #MADVNOB) and filtration apparatus (Millipore system Catalog MAVM0960R) with vacuum aspiration was used to harvest and rinse labeled membranes (8 times with 0.2 mL of chilled binding buffer). […] Binding data were analyzed using GraphPad Prism (GraphPad Software, Inc. San Diego, Calif.).

hCB1 [2] = biological target: T2, hCB1 (Homo sapiens, UniProt P21554); test: hCB1 radioligand binding assay ([3H]-CP 55,940 displacement); details: HEK membranes
Description: as §1
Stable, HEK-293-derived cell lines that recombinantly express hCB1 or hCB2 were established. In brief, the clone hCB1 (CNR1L) or hCB2 (CNR2) was transfected into human embryonic kidney cells (HEK-293) using Lipofectamine 2000 (Gibco, Cat#11668-019) according to the manufacturer's protocol. Transfected clones were isolated by single colony purification and clones were screened for receptor expression using a whole cell, ^3H—CP 55,940 radioligand binding assay. HEK-293 stable cells were maintained in Dulbecco's modified Eagles medium (DMEM) containing 10% fetal bovine serum, 2 mM L-glutamine and 0.5 mg/mL G-418.
Membranes were isolated from transfected cells as follows. Monolayers of cultured cells were washed twice with phosphate-buffered saline (PBS). Cells were scraped into 20 mM HEPES, pH 7.4, 10 mM EDTA containing complete cocktail protease inhibitors (Roche, Catalog #11 697 498 001), and were homogenized by an electric-powered mechanical probe homogenizer (Omni GLH; probe G7-195S) for 40 seconds at 7000 rpm. Homogenates were centrifuged 10 minutes at 1000×g at 4° C. The supernatant was collected and was centrifuged for 1 hour at 40,000×g. The supernatant was then decanted and the resulting pellet was re-suspended in 20 mM HEPES, pH 7.4, 5 mM MgCl2, 1 mM EDTA, 10% sucrose with complete cocktail protease inhibitors. Protein concentration of membrane suspensions were measured by Bradford Protein Assay using bovine serum albumin as the standard (BioRad catalog #500-0006). Protein concentrations of membrane suspensions were adjusted with the final buffer in the range of 5 to 10 mg/mL and were stored at −80° C. until further use.
Radioligand binding assays were performed by incubating membranes (2-10 μg protein) prepared from HEK-293 cells expressing recombinant human cannabinoid receptors, CB 1 or CB2, at room temperature with 0.5 nM cannabinoid receptor agonist, [^3H]-CP 55,940 (Perkin Elmer, catalog #NET 1051) in 0.2 mL of binding buffer (50 mM Tris-HCl, pH 7.5, 5 mM MgCl2, 2.5 mM EDTA) and 0.1% fatty acid free bovine serum albumin (Sigma Cat. #A0821) for 90 minutes. A rapid filtration technique using Millipore FB filter plates (Catalog #MADVNOB) and filtration apparatus (Millipore system Catalog MAVM0960R) with vacuum aspiration was used to harvest and rinse labeled membranes (8 times with 0.2 mL of chilled binding buffer). The radioactivity bound to the filters was counted with 0.05 mL of liquid scintillant (UltraGold MV, PerkinElmer catalog #6013159) in a scintillation counter (Perkin Elmer Microbeta instrument). Nonspecific binding was determined in the presence of unlabeled 1 μM CP 55,940 (Sigma Aldrich, catalog #C1112). Binding data were analyzed using GraphPad Prism (GraphPad Software, Inc. San Diego, Calif.).

hCB1 [3] = biological target: T2, hCB1; test: hCB1 cAMP agonist assay (HEK-293 cells); format: cell-based; details: cAMP agonist, HEK, 96-well
hCB2 [4] = biological target: T1, hCB2; test: hCB2 cAMP agonist assay (HEK-293 cells); format: cell-based
Method: as §1
cAMP assays were performed in HEK-293 cells stably expressing human CB 1 or CB2 receptors. […] Cells suspensions were centrifuged and the cells were washed once with PBS, were centrifuged again, and the cells were resuspended in HBSS (Hank's Balanced Salt Solution, Cellgro, Cat #21-022-CV) solution containing 10 mM HEPES and 0.1% fatty acid free BSA (Sigma, Cat #A0281). Cell suspensions were prepared at 1,500,000 cells per mL. Stock solutions of test substances (10 mM) in DMSO were diluted to 1 mM using 30% DMSO as diluent. Test substances of solutions (1 mM) were further diluted down to 3× of final assay concentrations in the above HBSS buffer containing 0.1% BSA in the presence of 90 uM forskolin (Sigma Cat#F6886). To perform the assay, 20 μL of cell suspension (1,500,000 cells/mL) were added to each well in 96 well plate and treated with 10 μL test substance solution diluted as described above. Cells and compounds were incubated at 37° C. for 30 minutes. Cells were lysed and cAMP concentration was measured using DiscoveRx-XS+ cAMP assay kit (DiscoveRx Corporation Ltd., Fremont, Calif., USA, Cat #90-0075-03), following the manufacturer's protocol. GraphPad Prism software was used to calculate EC50 values using sigmoidal dose response curve fitting. The maximal amount of cAMP produced by forskolin was defined as 100%.

hCB2 [5] = biological target: T1, hCB2; test: hCB2 GTPγS agonist assay (HEK-293 membranes); format: biochemical
Method: as §1, §2
^35S GTPγS binding assays were performed by incubating recombinant cell membranes prepared above (5 μg) in the presence of scintillation proximity assay beads (SPA beads, Catalog #RPNQ0252 GE Healthcare, Buckinghamshire, England) in GTPγS binding buffer [50 mM HEPES (pH 7.4), 100 mM NaCl, 5 mM MgCl2, 0.001% saponin (Sigma catalog #S4521)] supplemented with 20 uM GDP (Sigma catalog #G7127) in the presence or absence of test compound. The reaction was carried out in 96-well microplates with 0.1 nM [^35S]GTPγS (specific activity=1250 Ci/mmol; Perkin Elmer catalog #NEG030X250UC) in a final volume of 100 μL. After a 90 min room temperature incubation, the reaction was analyzed using a scintillation counter (Perkin Elmer Microbeta instrument). Binding data were analyzed using GraphPad Prism.

[6] = read-out: hCB2 IC50 (CP displ, nM, HEK)
[7] = read-out: hCB1 IC50 (CP displ, nM, HEK)
[8] = cAMP agonist, HEK, 96-well, read-out: hCB2 EC50 (cAMP ag, nM, HEK (96-well))

T2 sequence (P21554 whole entry): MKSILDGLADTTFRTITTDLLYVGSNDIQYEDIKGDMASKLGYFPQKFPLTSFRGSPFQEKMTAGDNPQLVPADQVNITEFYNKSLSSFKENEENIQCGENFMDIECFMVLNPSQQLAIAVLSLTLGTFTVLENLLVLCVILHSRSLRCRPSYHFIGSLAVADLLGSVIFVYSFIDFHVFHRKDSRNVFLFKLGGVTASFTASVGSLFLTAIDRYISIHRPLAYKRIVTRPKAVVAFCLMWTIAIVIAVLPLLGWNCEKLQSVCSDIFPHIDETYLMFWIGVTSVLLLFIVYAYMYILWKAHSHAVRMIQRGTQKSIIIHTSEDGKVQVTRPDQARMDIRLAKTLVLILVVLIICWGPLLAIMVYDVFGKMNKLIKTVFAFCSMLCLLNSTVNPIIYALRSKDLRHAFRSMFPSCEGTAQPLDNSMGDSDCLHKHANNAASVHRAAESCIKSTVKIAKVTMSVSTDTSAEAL
T1 sequence (P34972 whole entry): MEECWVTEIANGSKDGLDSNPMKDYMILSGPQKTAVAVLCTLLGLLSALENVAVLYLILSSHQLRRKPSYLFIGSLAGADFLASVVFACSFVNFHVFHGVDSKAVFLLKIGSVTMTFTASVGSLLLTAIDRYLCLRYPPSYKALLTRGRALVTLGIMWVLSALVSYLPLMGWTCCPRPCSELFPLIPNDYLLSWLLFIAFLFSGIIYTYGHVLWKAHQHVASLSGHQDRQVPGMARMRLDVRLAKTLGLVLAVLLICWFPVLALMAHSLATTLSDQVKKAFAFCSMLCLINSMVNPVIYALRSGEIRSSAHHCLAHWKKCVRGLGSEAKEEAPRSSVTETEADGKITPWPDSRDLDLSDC

| SMILES | IC50 (hCB2 [1]; [6]) [nM] | IC50 (hCB1 [2]; [7]) [nM] | hCB1 EC50 (cAMP ag, nM, HEK (96-well)) (hCB1 [3]) | IC50 (hCB2 [1]; hCB2 IC50 (CP displ, nM, HEK)) [nM] | EC50 (hCB2 [4]; [8]) [nM] | IC50 (hCB1 [2]; hCB1 IC50 (CP displ, nM, HEK)) [nM] | EC50 (hCB2 [5]; GTPγS agonist, HEK membranes, read-out: hCB2 EC50 (GTPyS ag, nM, HEK)) [nM] | EC50 (hCB2 [5]) [nM] | EC50 (hCB2 [4]) [nM] |
| --- | --- | --- | --- | --- | --- | --- | --- | --- | --- |
| CCn1c(C(=O)c2c(C)[nH]c3ccccc23)cc2ccsc21 [Compound I-38] | 1000 to 10000 | > 10000 | NS (“Not Significant,” which means less than 30% agonist activity when compared to the positive control) |  |  |  |  |  |  |
| CCOC(=O)CCn1c(C)c(C(=O)c2cc3ccsc3n2CC)c2ccccc21 [Compound I-26] |  |  | NS (“Not Significant,” which means less than 30% agonist activity when compared to the positive control) | 100 to 1000 | < 100 | > 10000 |  |  |  |
| CCCn1c(C(=O)c2c(C)n(S(=O)(=O)CC)c3ccccc23)cc2ccsc21 [Compound I-67] |  |  | NS (“Not Significant,” which means less than 30% agonist activity when compared to the positive control) | 100 to 1000 | 100 to 1000 | > 10000 |  |  |  |
| CCCn1c(C)c(C(=O)c2c(C)[nH]c3sccc23)c2ccccc21 [Compound I-6] |  |  | NS (“Not Significant,” which means less than 30% agonist activity when compared to the positive control) | > 10000 |  | > 10000 |  |  |  |
| CCCn1c(C(=O)c2c(C)[nH]c3ccc(C)cc23)cc2ccsc21 [Compound I-68] |  |  | NS (“Not Significant,” which means less than 30% agonist activity when compared to the positive control) | 1000 to 10000 |  | > 10000 |  |  |  |
| CCn1c(C(=O)c2c[nH]c3ccccc23)cc2ccsc21 [Compound I-37] |  |  |  | 100 to 1000 | < 100 | > 10000 | 100 to 1000 |  |  |
| CCn1c(C(=O)c2c[nH]c3ccncc23)cc2ccsc21 [Compound I-39] | > 10000 | > 10000 | NS (“Not Significant,” which means less than 30% agonist activity when compared to the positive control) |  |  |  |  |  |  |
| CCCn1c(C)c(C(=O)c2cc3cc(C)n(CCC)c3s2)c2ccccc21 [Compound I-56] |  |  |  | < 100 |  | 1000 to 10000 |  | < 100 | < 100 |
| CCn1c(C(=O)c2c(C)n(CCCCl)c3ccccc23)cc2ccsc21 [Compound I-18] |  |  |  | < 100 |  | 100 to 1000 |  | < 100 | < 100 |
| CCCn1c(C)c(C(=O)c2cc3ccsc3n2CC)c2c1CCCC2 [Compound I-85] |  |  |  | < 100 |  | 1000 to 10000 |  | < 100 | < 100 |
